Experimental findings from PubChem BioAssay (NCI) are described below.

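Five concentrations, 48 hours, 96-well plates. GI50 is the concentration that inhibits growth by half. TGI denotes the concentration required for complete inhibition of growth.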

Among the test systems are NCI-H522 lung; HCT-116 colon; UACC-257 melanoma; OVCAR-8 ovarian; LOX IMVI melanoma; OVCAR-3 ovarian; OVCAR-5 ovarian; NCI-H460 lung; EKVX NSCLC; NCI-H23 lung.
Common to all, as to test: DTP human tumour cell line panel, 48 h

The TGI is the concentration at which net growth stops. A higher TGI goes with less potent growth arrest. In the case of `CC12OC3CC(O1)C1(C=O)C4CCC5(C)C(c6ccc(=O)oc6)CCC5(O)C4CCC1(C3)O2` (centres undefined), the TGI in the assay with NCI-H522 lung is 0.317 µM; in the assay on HCT-116 colon, 0.399 µM; in the assay with UACC-257 melanoma, 0.774 µM; with OVCAR-8 ovarian, 1.2 µM; in the assay on LOX IMVI melanoma, 0.524 µM; with OVCAR-3 ovarian it was 0.384 µM. Besides, the figures for the concentration for total growth inhibition (TGI) in the assay on OVCAR-5 ovarian and with NCI-H460 lung were 1.19 µM and 0.159 µM, respectively.
For the molecule `CC1=NN(c2ccccc2)C(=O)C1N=Nc1ccc(Br)c(C)c1` (centres undefined), the TGI with HCT-116 colon, in the assay with UACC-257 melanoma, with OVCAR-8 ovarian, in the assay with EKVX NSCLC, in the assay with OVCAR-3 ovarian and in the assay with OVCAR-5 ovarian was over 100 µM each time. Further, the concentration for total growth inhibition (TGI) in the assay with NCI-H460 lung and in the assay on NCI-H23 lung was over 100 µM in each case.
In the case of `O=c1[nH]c2c(O)cccc2c2cc3c(c(O)c12)OCO3`, the TGI with NCI-H522 lung was 63.4 µM; in the assay on HCT-116 colon, 54.1 µM; in the assay with UACC-257 melanoma, 47.6 µM; in the assay on OVCAR-8 ovarian, over 100 µM; with EKVX NSCLC it was 77.4 µM; with LOX IMVI melanoma, 38.9 µM. In addition, the values for the total growth inhibition concentration (TGI) in the assay on OVCAR-3 ovarian and with NCI-H460 lung were 45.2 µM and 36.6 µM, respectively.
In general, GI50 refers to the concentration at which growth is held to half of that of the control. Consider `CS[C@@]1(C(=O)Nc2ccc3[nH]nc(-c4ccc(OC(C)C)nc4)c3c2)CCN(CC(=O)N2CC=C(c3ccc(-c4ncn(C)n4)cc3)CC2)C1`, for which the GI50 in the assay with NCI-H522 lung was over 51.2 µM; in the assay with HCT-116 colon it was 0.161 µM; in the assay with OVCAR-8 ovarian, 9.31 µM; with LOX IMVI melanoma, 0.204 µM; in the assay on OVCAR-3 ovarian, over 100 µM; with OVCAR-5 ovarian it was 0.131 µM. Further, the GI50 in the assay with NCI-H460 lung is over 100 µM; in the assay on NCI-H23 lung it was 0.16 µM. In addition, the TGI in the assay with NCI-H522 lung was over 100 µM; in the assay with HCT-116 colon, over 100 µM; in the assay with OVCAR-8 ovarian it was over 100 µM; with LOX IMVI melanoma, 8.28 µM; in the assay with OVCAR-3 ovarian it was over 100 µM; in the assay with OVCAR-5 ovarian, over 100 µM. The total growth inhibition concentration (TGI) in the assay with NCI-H460 lung and in the assay on NCI-H23 lung was over 100 µM in each case.
With `CC1(C)CC2CC(C)(CN2c2ncnc3ccc(Br)cc23)C1` (centres undefined), the GI50 was 13 µM with NCI-H522 lung; 12.3 µM in the assay with OVCAR-8 ovarian; 13.7 µM with LOX IMVI melanoma; 2.72 µM in the assay with OVCAR-3 ovarian; 14.1 µM in the assay on OVCAR-5 ovarian; 11.1 µM with NCI-H460 lung. Also, the GI50 in the assay on NCI-H23 lung is 8.74 µM. Moreover, the TGI in the assay on NCI-H522 lung came to 29.3 µM; in the assay on OVCAR-8 ovarian, 25 µM; in the assay with LOX IMVI melanoma, 26.5 µM; with OVCAR-3 ovarian it was 13.1 µM; in the assay on OVCAR-5 ovarian, 27.1 µM; in the assay on NCI-H460 lung, 35.2 µM. In the assay with NCI-H23 lung, this molecule had a TGI of 20.8 µM.
Regarding `CN1CCN(c2ccc3nc4c(nc3c2C(F)(F)F)C(=O)c2ncccc2C4=O)CC1`, the GI50 was 1.16 µM in the assay on NCI-H522 lung; 1.47 µM with HCT-116 colon; 0.873 µM in the assay on UACC-257 melanoma; 1.97 µM with OVCAR-8 ovarian; 1.79 µM with EKVX NSCLC; 1.04 µM in the assay on LOX IMVI melanoma. Besides, the 50% growth inhibitory concentration (GI50) in the assay with OVCAR-3 ovarian is 0.379 µM; in the assay with NCI-H460 lung it was 0.273 µM; in the assay on NCI-H23 lung, 0.365 µM. Besides, the TGI is 3.55 µM with NCI-H522 lung; 4.51 µM in the assay with HCT-116 colon; 2.4 µM in the assay on UACC-257 melanoma; 8.96 µM with OVCAR-8 ovarian; 3.87 µM with EKVX NSCLC; 2.66 µM in the assay on LOX IMVI melanoma. Further, the concentration for total growth inhibition (TGI) was 1.41 µM in the assay on OVCAR-3 ovarian, 1.32 µM with NCI-H460 lung and 1.91 µM in the assay with NCI-H23 lung.
With `COc1cccc(Nc2nccc(Nc3ccc4[nH]ncc4c3)n2)c1`, the GI50 in the assay with NCI-H522 lung is 1.48 µM; in the assay with HCT-116 colon it was 1.59 µM; in the assay with UACC-257 melanoma, 2.04 µM; with OVCAR-8 ovarian it was 1.67 µM; in the assay with EKVX NSCLC, 1.64 µM; with LOX IMVI melanoma, 1.44 µM. Besides, the GI50 with OVCAR-3 ovarian was 1.58 µM; with NCI-H460 lung it was 1.64 µM; with NCI-H23 lung, 1.69 µM. The TGI in the assay on NCI-H522 lung worked out at 2.86 µM; with HCT-116 colon, 3.23 µM; in the assay with UACC-257 melanoma, 3.72 µM; in the assay with OVCAR-8 ovarian, 4.39 µM; in the assay with EKVX NSCLC it was 4.09 µM; with LOX IMVI melanoma, 3.19 µM. Further, the TGI with OVCAR-3 ovarian is 4.07 µM; in the assay with NCI-H460 lung, 4.17 µM; in the assay on NCI-H23 lung it was 3.83 µM.
On to `CP(C)C.[Ag][I]`, for which the TGI with HCT-116 colon, in the assay on UACC-257 melanoma, in the assay with OVCAR-8 ovarian, in the assay on EKVX NSCLC, with LOX IMVI melanoma and with OVCAR-3 ovarian was over 100 µM throughout. Also, the concentration for total growth inhibition (TGI) with OVCAR-5 ovarian, in the assay with NCI-H460 lung and in the assay on NCI-H23 lung was over 100 µM in each case.
As to `CC(=O)N[C@@H](Cc1ccc(OP(=O)(O)O)cc1)C(=O)N[C@H]1CCC(=O)N2CCC[C@@H](C(=O)NCc3ccc(O)cc3)N2C1=O`, the GI50 in the assay with NCI-H522 lung, in the assay on HCT-116 colon, in the assay with UACC-257 melanoma, in the assay with OVCAR-8 ovarian, in the assay with LOX IMVI melanoma and in the assay with OVCAR-3 ovarian was over 25 µM throughout. For the same molecule, the GI50 in the assay on OVCAR-5 ovarian, in the assay with NCI-H460 lung and with NCI-H23 lung was over 25 µM in each case. The TGI in the assay with NCI-H522 lung, with HCT-116 colon, with UACC-257 melanoma, with OVCAR-8 ovarian, in the assay on LOX IMVI melanoma and with OVCAR-3 ovarian was over 25 µM in each case. The total growth inhibition concentration (TGI) in the assay on OVCAR-5 ovarian, in the assay on NCI-H460 lung and with NCI-H23 lung was over 25 µM throughout.
For the molecule `C=C1CC(C/C=C(\C)CC2CC(=C)C(=O)O2)OC1=O` (centres undefined), the concentration for total growth inhibition (TGI) with HCT-116 colon, in the assay on UACC-257 melanoma, in the assay on OVCAR-8 ovarian, with EKVX NSCLC, in the assay on LOX IMVI melanoma and in the assay with OVCAR-3 ovarian was over 100 µM in each case. For the same molecule, the TGI in the assay on OVCAR-5 ovarian, in the assay with NCI-H460 lung and in the assay on NCI-H23 lung was over 100 µM throughout.
Take `CCOC(=O)N1CCC(=O)C[C@@H]1C/C=C/P1(=O)O[C@H](c2ccccc2)C(C)N1C(C)C` (some centres undefined): the total growth inhibition concentration (TGI) in the assay on NCI-H522 lung, in the assay with HCT-116 colon, in the assay with UACC-257 melanoma, with OVCAR-8 ovarian, in the assay on EKVX NSCLC and in the assay on OVCAR-3 ovarian was over 100 µM throughout. Moreover, the TGI with OVCAR-5 ovarian and in the assay with NCI-H23 lung was over 100 µM each time.
